From article PMC12406204 (Journal of Medicinal Chemistry, 2025) come the findings set out here.

The test system of data set [1] is SH-SY5Y cells. The data set is described as follows: Neurite length in differentiated SH-SY5Y cells transfected with MAPT P301L + APP V717I. The note with it: for neuroprotective effect in presence of CB2R antagonist SR144528: 100 and 10 nM, SR144528 1 μM. Type of data set: cell-based, human. An excerpt:
Finally, to further validate these effects, a neuron-like in vitro model using differentiated SH-SY5Y cells was employed (Figure ). […] To simulate neurodegenerative conditions, cells were transiently transfected with expression plasmids encoding the MAPT P301L and APP V717I mutations. The MAPT P301L mutation promotes pathological tau hyperphosphorylation and aggregation, leading to microtubule destabilization, impaired axonal transport, and neurite retraction. , Meanwhile, the APP V717I mutation increases the production of long, aggregation-prone amyloidogenic peptides, disrupting cellular homeostasis through oxidative stress and cytoskeletal disorganization. ,
SH-SY5Y human neuroblastoma-derived cells (ECACC, 94030304) were cultured and differentiated in black 384-well plates (Revvity, 6057300). Plates were treated with laminin (1:500 dilution in PBS; Merck, L2020) by adding 25 μL per well and incubated for 2 h at room temperature. Subsequently, plates were washed three times with PBS. Cells were seeded at a density of 6.6 × 10^3 cells per well (in 50 μL) in culture medium. The base culture medium consisted of RPMI-1640 (Gibco, 61870) supplemented with 2% (v/v) fetal bovine serum (FBS; Merck, F7524), 1% (v/v) penicillin-streptomycin (P/S; Merck, P0781), and 0.1% (v/v) gentamicin (Merck, G1397).
Differentiation was initiated 24 h after plating. The culture medium was replaced with a differentiation medium composed of RPMI-1640 supplemented with 2% (v/v) FBS, 1% (v/v) P/S, 0.1% (v/v) gentamicin, and 10 μM all-trans retinoic acid (RA; Merck, R2625). Medium changes were performed every 3 days, and the plates were kept covered with aluminum foil to protect retinoic acid from light exposure. Six days later, cells were transfected with expression plasmids encoding MAPT P301L and APP V717I mutations employing Lipofectamine LTX (Thermo Fisher, 15338100) at a 1:2 proportion in Opti-MEM (Gibco, 11058-021) following the instructions of the manufacturer. After 6 h, the transfection medium was replaced with a differentiation medium composed of RPMI-1640, B27 supplement (1:50; Gibco, 17504), 1% (v/v) P/S, 0.1% (v/v) gentamicin, and 100 nM GLP-1 (Merck, G9416). 24 h later, test compounds were added using an Echo 650T acoustic dispenser (Labcyte) from a 10 mM stock solution in DMSO (Merck, D8418).
48 h after compound dispensation, cells were fixed with 4% paraformaldehyde (50 μL per well, Santa Cruz BT, sc-281692) for 20 min at 4 °C. Wells were then washed twice with HBSS (50 μL per wash, Merck, H8264) and incubated with 50 μL of blocking buffer for 30 min at room temperature. The blocking buffer consisted of HBSS supplemented with 5% BSA (w/v) (Merck, 10775835001) and 0.1% (v/v) Triton X-100 (Merck, T8787). After blocking, cells were incubated with an antibeta-tubulin antibody conjugated to Alexa Fluor 488 (1:500; BD Biosciences, 558605) and Draq5 nuclear stain (2.5 μM; Abcam, ab108410) diluted in blocking buffer. After incubation in the dark at room temperature, wells were washed once with 50 μL of HBSS and subsequently filled with 50 μL of blocking buffer prior to imaging.Images were acquired using an Operetta CLS High Content Screening System (Revvity) equipped with a 20× water-immersion objective. Fluorescent signals were detected using specific excitation/emission filter settings for each fluorophore: Alexa Fluor 488 (λex = 460–490 nm; λem = 500–550 nm) and Draq5 (λex = 615–645 nm; λem = 655–760 nm). For each well, nine nonoverlapping fields were captured under identical acquisition settings. Neurite length and complexity were quantified using Harmony software (version 4.9.2137.273; Revvity), applying a predefined analysis algorithm optimized for β-tubulin immunostaining. For each experiment, data were normalized to the average neurite length measured in the double-transfected condition (MAPT P301L + APP V717I) treated with vehicle, which was assigned a reference value of 100%. […]

The subject of data set [2] is mouse primary neurons. The data set is described as follows: Neuroprotection in primary cultures exposed to LPS + IFN-γ. It counts as cell-based. The protocol:
To unequivocally confirm that the observed neuroprotective effect was indeed mediated by CB2R activation, an additional experiment was conducted (Figure C).
To prepare primary neurons, brains from fetuses of pregnant CD1 mice were removed (gestational age: 19 days). Neurons were isolated as described in Hradsky et al. Briefly, after removal of the meninges, samples were dissected and digested with 0.25% trypsin (20 min at 37 °C). The effect of trypsin was stopped by adding an equal volume of culture medium (supplemented DMEM). A single-cell suspension was obtained by repeated pipetting followed by passage through a 100 μm-pore mesh. Pelleted (7 min, 200g) cells were resuspended in 2 mL of supplemented DMEM and seeded at a density of 3.5 × 10^5 cells/mL in 6-well plates. […]
Primary cultures of striatal neurons were treated for 24 h with selected SCRAs (100 nM). […] After ∼3 min of incubation at room temperature, 10 μL of the mixture were sampled in a Neubauer chamber and counted with a Countess II FL (Life Technologies, California, CA, USA). The unstained (viable) and stained (nonviable) cells were counted separately, and the percentage of viability was calculated as total number of viable cells/total number of cells × 100.

As to `NC(=O)[C@@H]1CCCCN1C(=O)c1cn(CC2CCCCC2)c2ccccc12` [18e], the “protective effect against neurite shortening” value in data set [1] (1 nM) is given as “neither compound produced a statistically significant effect”; in data set [1] (10 nM to 1 μM) it was “significant concentration-dependent protective effect”. Besides, in data set [1], the “neuroprotective effect in presence of CB2R antagonist SR144528” value is given as “reversed”.
For `NC(=O)[C@@H]1CCCCN1C(=O)c1nn(Cc2ccc(F)cc2)c2ccccc12` [18o], in data set [2] (compound alongside SR144528), the “cell viability after LPS + IFN-γ with CB2R antagonist SR144528” value was about 60%. In data set [2] (primary cultures exposed to LPS + IFN-γ), the “cell viability after LPS + IFN-γ” value is about 100%. For the same compound, the figures for the “protective effect against neurite shortening” value in data set [1] (1 nM) and in data set [1] (10 nM to 1 μM) were “neither compound produced a statistically significant effect” and “significant concentration-dependent protective effect”, respectively. The “neuroprotective effect in presence of CB2R antagonist SR144528” value in data set [1] was “reversed”.
